# Measurements as given in patent US5571822A, “Antitumor compounds” (The University of North Carolina at Chapel Hill, priority 1994, dated 1996).
# “Also recorded” adds a separate entry of the source. Like-named read-outs stand apart in the source and are kept apart here.
# Tests used:
# tubulin [1] = assay: inhibition of tubulin polymerization (ITP); format: biochemical, bovine
# Method: Electrophoretically homogeneous bovine brain tubulin was purified as described previously (Hamel, et al., 1984). […] Dihydrocombretastatin A-4 was prepared as described previously (Getahun et al., 1992).
# The tubulin polymerization assay was performed as described previously (Li et al., 1994). In brief, tubulin at 1.2 mg/mL ([…]) was preincubated for 15 min at 26° C. in a 0.24 mL volume in 0.8M monosodium glutamate (pH 6.6 with NaOH in a 2M stock solution) with varying drug concentrations. The drug stock solutions were in dimethyl sulfoxide, and the final solvent concentration was 4% (v/v). […] All concentrations are in terms of the final reaction volume (0.25 mL). The reaction mixtures were chilled on ice, and […] of 10 mM GTP was added to each reaction mixture. Samples were transferred to cuvettes held at 0° C. by an electronic temperature controller in Gilford spectrophotometers. Baselines were established at 350 nm, and polymerization initiated by a temperature jump to 26° C. The jump took about 50 sec to complete. After 20 min, turbidity readings were recorded, and the temperature controller was set to 0° C. When depolymerization was complete, turbidity readings were again recorded. […] IC50 values were obtained graphically from inhibition of polymerization by different drug concentrations. Four spectrophotometers were used for each experimental sequence, with at least two control reactions (no drug) in each set.
# OVCAR-4 = assay: NCI in vitro tumor cell screen, OVCAR-4 ovarian cancer; format: cell-based; conditions: Homo sapiens
# Method: (§1) Selected 2-phenyl-4-quinolones were assayed using an in vitro, disease-oriented antitumor screen run by the National Cancer Institute (NCI) (e.g., Boyd 1989). The screen involved approximately 60 different cell lines and is a useful indicator of in vivo antitumor activity for a broad variety of tumor types (Grever et al., 1992; Monks et al., 1991). The cell lines tested included cells derived from the following solid tumor types: leukemia, non-small cell lung, colon, the central nervous system (CNS), melanoma, ovarian, renal, prostate, and breast cancers.
# [2] = system: approximately 60 different cell lines; assay: NCI in vitro disease-oriented human tumor cell screen, all cell lines; format: cell-based; conditions: for GI50: Homo sapiens
# Text: The cell lines tested included cells derived from the following solid tumor types: leukemia, non-small cell lung, colon, the central nervous system (CNS), melanoma, ovarian, renal, prostate, and breast cancers.
# protein-linked DNA = assay: breaks in protein-linked DNA; conditions: compared with VP-16
# tubulin [3] = assay: inhibition of radiolabeled colchicine binding to tubulin (ICB); set-up: species or system bovine; conditions: evaluated only when polymerization IC50 ≤ 1.0 μM; inhibitor equimolar with [3H]colchicine, 5-fold molar excess over tubulin
# Method: Studies conducted in support of the present invention indicate that one mode of action of the 2-phenyl-4-quinolone compounds, as antitumor agents, is an ability to bind to tubulin and inhibit cell mitosis. […] […].
# […]. […] […].
# Electrophoretically homogeneous bovine brain tubulin was purified as described previously (Hamel, et al., 1984). Combretastatin A-4 was a generous gift of Dr. G. R. Pettit, Arizona State University. Dihydrocombretastatin A-4 was prepared as described previously (Getahun et al., 1992). […]
# K-562 = assay: NCI in vitro tumor cell screen, K-562 leukemia; format: cell-based; conditions: Homo sapiens, K562
# Method: as §1
# NCI-H226 = assay: NCI in vitro tumor cell screen, NCI-H226 non-small cell lung cancer; format: cell-based; conditions: Homo sapiens
# Method: as §1
# HCT116 = assay: NCI in vitro tumor cell screen, HCT116 colon cancer; format: cell-based; conditions: Homo sapiens, HCT-116
# Method: as §1
# KM202L = assay: NCI in vitro tumor cell screen, KM20L2 colon cancer; format: cell-based; conditions: Homo sapiens, KM-20L2
# Method: as §1
# SF-268 = assay: NCI in vitro tumor cell screen, SF-268 CNS tumor; format: cell-based; conditions: Homo sapiens
# Method: as §1
# (§2) melonoma; SF268 and SF295, CNS tumor cell lines; DU145, prostate cancer
# SF-295 = assay: NCI in vitro tumor cell screen, SF-295 CNS tumor; format: cell-based; conditions: Homo sapiens, SF-295; read-out: logGI50 (converted)
# Method: as §1, §2
# SK-Mel-5 = assay: NCI in vitro tumor cell screen, SK-Mel-5 melanoma; format: cell-based; conditions: Homo sapiens
# Method: as §1, §2
# OVCAR-3 = assay: NCI in vitro tumor cell screen, OVCAR-3 ovarian cancer; format: cell-based; conditions: Homo sapiens
# Method: as §1
# RXF-393 = assay: NCI in vitro tumor cell screen, RXF-393 renal cancer; format: cell-based; conditions: Homo sapiens
# Method: as §1
# DU-145 = assay: NCI in vitro tumor cell screen, DU-145 prostate cancer; format: cell-based; conditions: Homo sapiens
# Method: as §1, §2
# MDA-N = assay: NCI in vitro tumor cell screen, MDA-N breast cancer; format: cell-based; conditions: Homo sapiens
# Method: as §1
# [4] = ± SD, tubulin 1.2 mg/mL, 26° C., 20 min, read-out: ITP IC50 (inhibition of tubulin polymerization)
# [5] = calculated from all cell lines tested (Table II), read-out: average logGI50 (converted)
# [6] = SF-268, CNS tumor, read-out: logGI50 (converted)
# [7] = average over cell lines, read-out: average log GI50 (converted)
SMILES,IC50 (tubulin [1]; [4]),GI50 (OVCAR-4),"GI50 [2, 5]",breaks in protein-linked DNA (protein-linked DNA),ICB (% inhibition of colchicine binding) (tubulin [3]),GI50 (K-562),GI50 (NCI-H226),GI50 (HCT116),GI50 (KM202L),GI50 (SF-268; [6]),GI50 (SF-295),GI50 (SK-Mel-5),GI50 (OVCAR-3),GI50 (RXF-393),GI50 (DU-145),GI50 (MDA-N),"GI50 [2, 7]",also measured
"CC(=O)Nc1ccc2nc(-c3cccc(Cl)c3)cc(O)c2c1 [compound 26, 3'-Chloro-6-acetamido-2-phenyl-4-quinolone]",0.0023 ± 0.0007 mM,> 100000 nM,10500 nM,no detectable breaks in protein-linked DNA,,,,,,,,,,,,,,
"O=c1cc(-c2cccc(OCc3ccccc3)c2)[nH]c2cc3c(cc12)OCO3 [compound 19, 3'-Benzyloxy-6,7-methylenedioxy-2-phenyl-4-quinolone]",0.00045 ± 3e-05 mM,> 100000 nM,676 nM,,26 ± 5%,363 nM,229 nM,389 nM,224 nM,12900 nM,447 nM,282 nM,245 nM,407 nM,1100 nM,145 nM,,
"CCOc1cccc(-c2cc(=O)c3cc4c(cc3[nH]2)OCO4)c1 [compound 18, 3'-Ethoxy-6,7-methylenedioxy-2-phenyl-4-quinolone]",0.00047 ± 0.0001 mM,,224 nM,,40 ± 2%,44.7 nM,324 nM,174 nM,182 nM,269 nM,64.6 nM,191 nM,166 nM,275 nM,251 nM,17.8 nM,224 nM,
"COc1cccc(-c2cc(O)c3cc(N(C)C)ccc3n2)c1 [compound 23, 3'-Methoxy-6-N,N-dimethylamino-2-phenyl-4-quinolone]",0.00038 ± 0.0001 mM,5500 nM,30.2 nM,,14 ± 8%,8.91 nM,44.7 nM,,4.57 nM,43.7 nM,15.5 nM,25.7 nM,15.1 nM,18.6 nM,34.7 nM,1.7 nM,31.6 nM,"IC50 (tubulin [1]; values given in mM, read-out: IC50, inhibition of tubulin polymerization): 0.00038 mM; antitumor activity / cytotoxicity, in words [2]: in every case lower than those observed for compounds 10-22, 25-27, and 32; difference in average log GI50 versus compounds 10-22, 25-27, and 32 [2]: at least 0.9 log units"
"COc1cccc(-c2cc(O)c3cc(NC(C)=O)ccc3n2)c1 [compound 27, 3'-Methoxy-6-acetamido-2-phenyl-4-quinolone]",0.0021 ± 0.0005 mM,,20000 nM,no detectable breaks in protein-linked DNA,,,,,,,,,,,,,,"GI50 (SF-268; SF-268, read-out: logGI50 (converted)): 5500 nM"
"COc1cccc(-c2cc(O)c3cc(N4CCCC4)ccc3n2)c1 [compound 28, 3'-Methoxy-6-pyrrolinyl-2-phenyl-4-quinolone]",,2000 nM,1.86 nM,,,< 1 nM,< 1 nM,< 1 nM,< 1 nM,< 1 nM,< 1 nM,< 1 nM,< 1 nM,< 1 nM,< 1 nM,< 1 nM,≤ 1.86 nM,"antitumor activity / cytotoxicity, in words [2]: most potent activity of all; also recorded: exceeded the sensitivity of the testing protocol for many of the cell lines tested"
"O=c1cc(-c2cccc(OC(F)(F)F)c2)[nH]c2cc3c(cc12)OCO3 [compound 17, 3'-Trifluoromethoxy-6,7-methylenedioxy-2-phenyl-4-quinolone]",0.0005 ± 0.0001 mM,25.7 nM,417 nM,,40 ± 5%,36.3 nM,195 nM,14.1 nM,36.3 nM,,25.7 nM,170 nM,63.1 nM,40.7 nM,45.7 nM,< 10 nM,,
"COc1cccc(-c2cc(O)c3cc(Cl)ccc3n2)c1 [compound 24, 3'-Methoxy-6-chloro-2-phenyl-4-quinolone]",0.0007 ± 0.0002 mM,,,no detectable breaks in protein-linked DNA,16 ± 5%,,,,,,,,,,,,,
